In US12054464B1, “Methyl 4-((5-(3-fluorophenyl)-4-phenyl-4H-1,2,4-triazol-3-ylthio)methyl)benzoate as an antimicrobial compound” (KING FAISAL UNIVERSITY, priority 2023, dated 2024):
Values belong to the compound of their own block, whether it stands above or below them.

Key:
Aspergillus flavus = assay: agar plate disc-diffusion, antifungal activity by inhibition zone; type: cell-based
Procedure: (§1) The agar plate disc-diffusion method was applied. Sterilized filter papers (6 mm in diameter) were wetted with 10 μL of a solution of methyl 4-((5-(3-fluorophenyl)-4-phenyl-4H-1,2,4-triazol-3-ylthio)methyl)benzoate (III) to be tested, containing 10 mg/mL in DMSO, and the discs were allowed to air dry. The discs were then placed onto the surface of agar plates (nutrient agar for bacteria and Sabouraud's dextrose agar for fungi) seeded with the test organism. Each plate contained 15 mL of the agar medium, previously seeded with 0.2 mL of the broth culture of each organism pregrown for 18 hours. The plates were incubated at 37 °C for 48 hours, and 72 hours for fungi. The inhibition zones were measured in mm. Discs impregnated with DMSO were used as a control, and its inhibition zone was subtracted from the tested compound actual inhibition zone.

[1] = tested on: Chrysosporium keratinophilum; assay: as above; type: cell-based
Procedure: as §1

Bacillus Cereus = assay: agar plate disc-diffusion, antibacterial activity by inhibition zone; type: cell-based; settings: Bacillus Cereus (Gram positive)
Procedure: as §1

Pseudomonas aeruginosa = assay: as above; type: cell-based; settings: Pseudomonas aeruginosa (Gram negative)
Procedure: as §1

Escherichia coli = assay: as above; type: cell-based; settings: Escherichia coli (Gram negative)
Procedure: as §1

Staphylococcus aureus = assay: as above; type: cell-based; settings: Staphylococcus aureus (Gram positive)
Procedure: as §1

[2] = A = concentration of comp. = 10,000 μL
[3] = B = concentration of comp. = 30,000 μL
[4] = C = concentration of comp. = 50,000 μL

melting point: 185 to 186 °C
SMILES: COC(=O)c1ccc(CSc2nnc(-c3cccc(F)c3)n2-c2ccccc2)cc1 [III, methyl 4-((5-(3-fluorophenyl)-4-phenyl-4H-1,2,4-triazol-3-ylthio)methyl)benzoate]
inhibition zone (Aspergillus flavus; [2]): 19 mm
inhibition zone (Aspergillus flavus; [3]): 24 mm
inhibition zone (Aspergillus flavus; [4]): 34 mm
inhibition zone [1, 2]: 28 mm
inhibition zone [1, 3]: 30 mm
inhibition zone [1, 4]: 49 mm
inhibition zone (Bacillus Cereus; [2]): 28 mm
inhibition zone (Bacillus Cereus; [3]): 29 mm
inhibition zone (Bacillus Cereus; [4]): 40 mm
inhibition zone (Pseudomonas aeruginosa; [2]): 24 mm
inhibition zone (Pseudomonas aeruginosa; [3]): 33 mm
inhibition zone (Pseudomonas aeruginosa; [4]): 40 mm
inhibition zone (Escherichia coli; [2]): 29 mm
inhibition zone (Escherichia coli; [3]): 38 mm
inhibition zone (Escherichia coli; [4]): 54 mm
inhibition zone (Staphylococcus aureus; [2]): 14 mm
inhibition zone (Staphylococcus aureus; [3]): 20 mm
inhibition zone (Staphylococcus aureus; [4]): 23 mm

SMILES: O=C(O)c1cn(C2CC2)c2cc(N3CCNCC3)c(F)cc2c1=O [Cip., ciprofloxacin, reference compound]
inhibition zone (Aspergillus flavus; [2]): 29 mm
inhibition zone (Aspergillus flavus; [3]): 30 mm
inhibition zone (Aspergillus flavus; [4]): 42 mm
inhibition zone [1, 2]: 29 mm
inhibition zone [1, 3]: 30 mm
inhibition zone [1, 4]: 53 mm
inhibition zone (Bacillus Cereus; [2]): 29 mm
inhibition zone (Bacillus Cereus; [3]): 30 mm
inhibition zone (Bacillus Cereus; [4]): 42 mm
inhibition zone (Pseudomonas aeruginosa; [2]): 29 mm
inhibition zone (Pseudomonas aeruginosa; [3]): 30 mm
inhibition zone (Pseudomonas aeruginosa; [4]): 53 mm
inhibition zone (Escherichia coli; [2]): 30 mm
inhibition zone (Escherichia coli; [3]): 39 mm
inhibition zone (Escherichia coli; [4]): 60 mm
inhibition zone (Staphylococcus aureus; [2]): 43 mm
inhibition zone (Staphylococcus aureus; [3]): 44 mm
inhibition zone (Staphylococcus aureus; [4]): 53 mm
